Data: US20110151018A1, “METHODS OF INSECT CONTROL” (BRANDEIS UNIVERSITY, priority 2008, published 2011)

Columns and labels:
flies = assay: Ingestion of AITC-laden food over a 60 minute period; assay type: in vivo, Drosophila; details: well before the end of the 60 minute assay
dTRPA1-2C = assay: AITC-evoked currents of dTRPA1-2C mutant channel in oocytes; assay type: cell-based, Drosophila melanogaster; details: 0.1 and 0.5 mM AITC normalized to 1.0 mM, -60 mV
Procedure: (§1) Two-electrode voltage clamping on Xenopus laevis oocytes: Agonist-evoked dTRPA1 currents were recorded as previously described (52), with the following modifications. Agonists of interest were added to the oocyte perfusion buffer (96 mM NaCl, 1 mM MgCl2, 4 mM KCl, and 5 mM HEPES, pH 7.6). Voltage was initially held at −60 mV, and each 300-ms voltage ramp (−60 mV to 60 mV) per sec was applied to dTRPA1- or AgTRPA1-expressing oocytes during perfusion of agonist-containing buffer. Typical resting membrane potentials of oocytes used were between −25 and −60 mV.
Substitutions of cysteine/lysine residues in dTrpA1 were made by swapping a region of wild type cDNA sequence including codons of cysteine or lysine with mutated cassettes. A pair of mutually complemetary oligonucleotide primers with a desired mutation were prepared, and each of them was paired with upstream or downstream primers for the first two PCR reactions. The resulting two PCR fragments overlap in the mutant primer-annealing region that contains the replaced codons, and served as template for the second PCR reaction amplified only with the upstream and down stream primers. The upstream and down stream primers were designed to be just outside of specific restriction endonuclease target sites that were used to clone the second PCR products back in the wild type dTrpA1 cDNA background sequence. […]

D. melanogaster adults = assay: Vapor avoidance assay (choice between AITC tube and DMSO tube); assay type: in vivo, Drosophila melanogaster; details: dTrpA1 loss-of-function mutants, P<0.0001
Procedure: Vapor avoidance assay: One to three day-old flies were collected, knocked out by CO2, and kept on a fresh food at least 24 hrs before use. Choice apparatus was as previously described (3). ˜200 mM AITC was prepared daily by diluting 1 part of 99% AITC (Sigma) in 49 parts of DMSO. 1 microliter of diluted AITC was placed on the tip of 16-gauge needle (plugged by bending), inserted in bottom of a capped 14-ml polypropylene tube and allowed to diffuse for 2 min prior to use. 1 microliter of DMSO alone was placed on a needle tip inserted into the other 14-ml tube. During diffusion period, flies were transferred to the apparatus held within the fly elevator. After diffusion period, AITC tube was uncapped and inserted one opening of the choice chamber, other opening contained vehicle only tube. […] AITC and vehicle only sides were alternated to offset any bias caused by possible asymmetric condition. Avoidance index was calculated by subtracting the fraction of flies in AITC tube from fraction in vehicle alone tube.

D. melanogaster flies [1] = assay: Leg only PER assay; assay type: in vivo, Drosophila melanogaster; details: 2 mM AITC/12% sucrose
Description: Proboscis extension response (PER) assay: As reactive electrophiles are commonly encountered as defensive agents present in food sources, we also examined AITC sensing in the context of fly feeding. Flies aged two to seven days were starved on wet Kim wipes overnight, knocked out on ice, and glued (Elmer's glue) by their wings on a glass slide. Flies recovered in a humidified chamber at least for 2 hrs at room temperature prior to assay. At the beginning of PER assay, the fly was satiated with water. Next, solution containing tastants was presented to the fly as a liquid ball on a pipette tip, touching the forelegs only. When the proboscis was extended and maintained the contact for 2-3 sec with the presented food, it was scored as 1. If the contact is only brief or proboscis stuttered on the tastant, 0.5 was given as the score. When the proboscis never made contact within 5 sec, 0 was given. Each fly was offered five times per experiment, and between offerings water was given to satiation. As AITC was always accepted on first offering, frequency of PER was calculated as a fraction obtained from the […] offerings (sum of four scores divided by 4). […]

D. melanogaster flies [2] = assay: Proboscis extension response (PER) assay, solution contact with labellum; assay type: in vivo, Drosophila melanogaster
Description: Proboscis extension response (PER) assay: As reactive electrophiles are commonly encountered as defensive agents present in food sources, we also examined AITC sensing in the context of fly feeding. Flies aged two to seven days were starved on wet Kim wipes overnight, knocked out on ice, and glued (Elmer's glue) by their wings on a glass slide. Flies recovered in a humidified chamber at least for 2 hrs at room temperature prior to assay. At the beginning of PER assay, the fly was satiated with water. […] When the proboscis was extended and maintained the contact for 2-3 sec with the presented food, it was scored as 1. If the contact is only brief or proboscis stuttered on the tastant, 0.5 was given as the score. When the proboscis never made contact within 5 sec, 0 was given. Each fly was offered five times per experiment, and between offerings water was given to satiation. As AITC was always accepted on first offering, frequency of PER was calculated as a fraction obtained from the […] offerings (sum of four scores divided by 4). For leg only PER assays, the procedures are same as above except that the flies tested were not allowed to contact with the offered food with proboscis, with either 12% sucrose or a mixture of 2 mM AITC/12% sucrose was offered ten times.

dTRPA1 [3] = molecular target: T1, dTRPA1 (Drosophila melanogaster, UniProt Q7Z020); assay: Agonist-evoked dTRPA1 currents, two-electrode voltage clamping on Xenopus laevis oocytes; assay type: cell-based; details: for activation of wild-type dTRPA1 channel currents: 100 μM, applied 60-80 sec, currents at -60 and +60 mV
T1 sequence (Q7Z020 1-1197): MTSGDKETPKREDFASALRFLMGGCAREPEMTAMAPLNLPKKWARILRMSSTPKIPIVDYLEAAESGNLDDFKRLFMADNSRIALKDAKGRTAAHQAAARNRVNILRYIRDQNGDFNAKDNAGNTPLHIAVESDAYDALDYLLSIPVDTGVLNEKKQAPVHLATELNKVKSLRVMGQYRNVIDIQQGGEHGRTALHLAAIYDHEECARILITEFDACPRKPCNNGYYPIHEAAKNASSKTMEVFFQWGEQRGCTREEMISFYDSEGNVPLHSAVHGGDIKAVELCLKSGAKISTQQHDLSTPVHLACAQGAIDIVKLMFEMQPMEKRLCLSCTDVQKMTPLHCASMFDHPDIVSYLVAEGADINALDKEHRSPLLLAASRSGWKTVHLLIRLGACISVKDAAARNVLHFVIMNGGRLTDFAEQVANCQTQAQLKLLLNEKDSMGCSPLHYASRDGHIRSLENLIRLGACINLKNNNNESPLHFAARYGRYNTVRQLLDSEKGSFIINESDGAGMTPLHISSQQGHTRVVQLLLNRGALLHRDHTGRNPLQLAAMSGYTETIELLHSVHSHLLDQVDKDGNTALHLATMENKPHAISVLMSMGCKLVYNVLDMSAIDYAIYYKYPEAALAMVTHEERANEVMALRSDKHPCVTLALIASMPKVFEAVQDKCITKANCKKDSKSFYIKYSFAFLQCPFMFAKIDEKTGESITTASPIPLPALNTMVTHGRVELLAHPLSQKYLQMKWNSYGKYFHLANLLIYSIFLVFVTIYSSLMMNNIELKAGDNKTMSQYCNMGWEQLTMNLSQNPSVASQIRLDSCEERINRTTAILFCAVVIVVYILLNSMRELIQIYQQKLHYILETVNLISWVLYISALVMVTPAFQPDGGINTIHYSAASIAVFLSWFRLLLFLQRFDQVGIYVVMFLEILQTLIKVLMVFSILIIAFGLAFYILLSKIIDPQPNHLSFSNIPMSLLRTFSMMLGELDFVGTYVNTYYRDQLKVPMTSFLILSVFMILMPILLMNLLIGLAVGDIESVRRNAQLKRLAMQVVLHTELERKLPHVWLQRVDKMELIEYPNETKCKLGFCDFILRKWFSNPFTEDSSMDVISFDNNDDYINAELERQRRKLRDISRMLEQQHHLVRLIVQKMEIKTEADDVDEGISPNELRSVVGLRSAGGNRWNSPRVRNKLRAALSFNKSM
Procedure: as §1

Drosophila melanogaster = details: cited from earlier work
agTRPA1 [4] = assay: Agonist-evoked agTRPA1 currents, two-electrode voltage clamping on Xenopus laevis oocytes; assay type: cell-based, Anopheles gambiae; details: 100 μM
Procedure: as §1

[5] = tested on: motor neurons expressing dTRPA1; assay: Larval neuromuscular junction electrophysiology (EJPs in muscle 6); assay type: cell-based, Drosophila melanogaster
Description: Larval neuromuscular junction electrophysiology: dTRPA1 was expressed in larval motor neurons using OK371-GAL4, a driver specific for glutamatergic neurons (Aberle et al., 2006) as described (61). In all preparations, the ventral ganglion was dissected away, leaving only motor axons and terminals. Larval muscle 6 (m6) was impaled with a sharp electrode (10-20 MO) containing 3M KCl. Resting membrane potentials were typically between −40 and −50 mV. Saline was perfused over the preparation, then increasing concentrations of cinnemaldehyde applied using a custom built gravity perfusion system. EJP frequency was measured-30 sec after application of each concentration using analysis scripts in Spike 2 (Cambridge Electronic Design, Cambridge, UK).

agTRPA1 [6] = assay: Warmth-evoked currents in agTRPA1-expressing Xenopus laevis oocytes (two electrode voltage clamp); assay type: cell-based, Anopheles gambiae; details: 50 micromolar Ruthenium Red, -60 mV
Procedure: (§2) Oocyte-positive Xenopus laevis females were obtained from Nasco (Ft. Atkinson, Wis.), and maintained at ˜19° C. with 12 h/12 h dark/light cycles. Ovaries were surgically isolated, and treated with 1.5 mg/ml of collagenase type II (Worthington, Lakewood, N.J.) for 90 min, and individual oocytes were defolliculated with a pair of forceps. cRNA was transcribed by mMessage mMachine T3 kit (Ambion, Austin, Tex.) from each cDNA construct, and 50 nl aliquot per oocyte was injected using an automatic Drummond microinjector. (agTRPA1 sequence deposited as Genbank #108 1610.) Membrane potential was maintained at −60 mV by two electrode voltage clamping (TEVC) during warm-activated current recording. Resistance of pulled glass capillary electrodes filled with 3 M KCl was between 0.5 and 1.5 MΩ. Typical resting membrane potentials of oocytes used for current recording were between −25 and -60 mV. Current was recorded at 2 kHz and filtered to 1 kHz with the output filter of the amplifier (OC-725B, Warner instruments, Hamden, Conn.). […] Each voltage step lasted 100 ms following 10 ms holding at −60 mV, and the recorded current in the last 40 ms was averaged to determine the current amplitude at a given voltage.

dTRPA1 [7] = molecular target: T1, dTRPA1; assay: Warmth-evoked currents in dTRPA1-expressing Xenopus laevis oocytes (two electrode voltage clamp); assay type: cell-based; details: 50 micromolar Ruthenium Red, -60 mV
Procedure: as §2

C=CCN=C=S [AITC, allyl isothiocyanate]
incapacitation of flies on exposure (flies): incapacitated all flies | AITC sensitivity of dTRPA1-2C compared to wild type dTRPA1 (dTRPA1-2C): significantly decreased AITC sensitivity | AITC vapor avoidance compared to control (D. melanogaster adults): significantly reduced AITC avoidance | effect on PER elicited by contact of 12% sucrose solution with the legs (D. melanogaster flies [1]): no detectable effects | PER upon the first offering (D. melanogaster flies [2]; 12% sucrose containing 2 mM AITC, labellum): All flies also exhibited a PER | PER triggered by the four subsequent offerings (D. melanogaster flies [2]; control flies, 12% sucrose containing 2 mM AITC, labellum (sucrose alone 95%)): 33% | PER in response to multiple offerings (D. melanogaster flies [2]; dTrpA1 mutants, sucrose containing AITC): no reduction in PER | activation of wild-type dTRPA1 channel currents (dTRPA1 [3]): robustly activated | toxicity and mutagenicity to the fruit fly (Drosophila melanogaster): toxic and mutagenic | activation of agTRPA1 channel currents (agTRPA1 [4]): robust responses

Cn1c(=O)c2c(ncn2C)n(C)c1=O [caffeine]
inhibition of the PER, dTrpA1 mutants versus controls (D. melanogaster flies [2]; caffeine-mediated): indistinguishable

O=CC=Cc1ccccc1 [cinnamaldehyde]
response of control motor neurons ([5]; genetic controls without dTRPA1): unresponsive | activation of motor neurons expressing dTRPA1 (EJPs in target muscles) ([5]; ok371-Gal4 driven dTRPA1, 3rd instar larvae): robustly activated | activation of wild-type dTRPA1 channel currents (dTRPA1 [3]): robustly activated

C=CC=O [acrolein]
activation of wild-type dTRPA1 channel currents (dTRPA1 [3]): robustly activated | toxicity and mutagenicity to the fruit fly (Drosophila melanogaster): toxic and mutagenic

N.N.N.N.N.N.N.N.N.N.N.N.N.N.[Cl-].[Cl-].[Cl-].[Cl-].[Cl-].[Cl-].[O-2].[O-2].[Ru+3].[Ru+3].[Ru+4] [Ruthenium Red, ruthenium red]
inhibition of warmth-activated agTRPA1 currents (agTRPA1 [6]): inhibited | inhibition of electrophile-evoked dTRPA1 currents (dTRPA1 [3]; 100 μM RR): inhibited | inhibition of warmth-activated dTRPA1 currents (dTRPA1 [7]): inhibited
